The values below are quoted from earlier work in patent US7678808B2, “5 HT receptor mediated neurogenesis” (BrainCells, Inc., priority 2006, dated 2010).

Series [1] relates to Group I or Group III receptors. The settings on record: sub-mM concentrations; cited from earlier work.
Another series has as its target mGluR3 (Homo sapiens, UniProt Q14832). The settings on record: read-out: IC50 against mGluR3; cited from earlier work.
A further series concerns the target mGluR2 (Homo sapiens, UniProt Q14416). The following applies: read-out: IC50 against mGluR2; cited from earlier work.

pIC50: −log10 of the molar value.

Chain of mGluR2 (Q14416 19-872): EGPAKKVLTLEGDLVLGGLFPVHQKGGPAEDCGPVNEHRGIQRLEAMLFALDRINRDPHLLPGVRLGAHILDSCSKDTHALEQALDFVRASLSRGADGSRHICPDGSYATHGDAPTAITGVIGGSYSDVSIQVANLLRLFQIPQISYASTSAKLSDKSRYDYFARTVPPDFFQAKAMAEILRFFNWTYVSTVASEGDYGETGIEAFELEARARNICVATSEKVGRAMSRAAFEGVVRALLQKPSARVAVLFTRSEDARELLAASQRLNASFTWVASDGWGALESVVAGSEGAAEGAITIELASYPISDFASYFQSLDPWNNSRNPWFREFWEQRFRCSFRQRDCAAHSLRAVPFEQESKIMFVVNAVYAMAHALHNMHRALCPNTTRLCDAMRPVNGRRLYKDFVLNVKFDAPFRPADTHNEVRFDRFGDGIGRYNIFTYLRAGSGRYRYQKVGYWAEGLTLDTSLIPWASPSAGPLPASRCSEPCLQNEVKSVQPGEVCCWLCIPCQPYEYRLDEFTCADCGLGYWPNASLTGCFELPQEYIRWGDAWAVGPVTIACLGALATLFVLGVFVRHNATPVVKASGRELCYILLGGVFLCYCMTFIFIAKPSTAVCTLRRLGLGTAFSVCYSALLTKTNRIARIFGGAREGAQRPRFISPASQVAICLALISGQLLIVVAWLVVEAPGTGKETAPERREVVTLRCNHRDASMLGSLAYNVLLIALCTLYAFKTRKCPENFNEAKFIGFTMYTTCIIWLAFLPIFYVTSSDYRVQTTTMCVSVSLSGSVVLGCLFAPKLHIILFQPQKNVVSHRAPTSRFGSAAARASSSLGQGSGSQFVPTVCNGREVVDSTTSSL
Chain of mGluR3 (Q14832 23-879): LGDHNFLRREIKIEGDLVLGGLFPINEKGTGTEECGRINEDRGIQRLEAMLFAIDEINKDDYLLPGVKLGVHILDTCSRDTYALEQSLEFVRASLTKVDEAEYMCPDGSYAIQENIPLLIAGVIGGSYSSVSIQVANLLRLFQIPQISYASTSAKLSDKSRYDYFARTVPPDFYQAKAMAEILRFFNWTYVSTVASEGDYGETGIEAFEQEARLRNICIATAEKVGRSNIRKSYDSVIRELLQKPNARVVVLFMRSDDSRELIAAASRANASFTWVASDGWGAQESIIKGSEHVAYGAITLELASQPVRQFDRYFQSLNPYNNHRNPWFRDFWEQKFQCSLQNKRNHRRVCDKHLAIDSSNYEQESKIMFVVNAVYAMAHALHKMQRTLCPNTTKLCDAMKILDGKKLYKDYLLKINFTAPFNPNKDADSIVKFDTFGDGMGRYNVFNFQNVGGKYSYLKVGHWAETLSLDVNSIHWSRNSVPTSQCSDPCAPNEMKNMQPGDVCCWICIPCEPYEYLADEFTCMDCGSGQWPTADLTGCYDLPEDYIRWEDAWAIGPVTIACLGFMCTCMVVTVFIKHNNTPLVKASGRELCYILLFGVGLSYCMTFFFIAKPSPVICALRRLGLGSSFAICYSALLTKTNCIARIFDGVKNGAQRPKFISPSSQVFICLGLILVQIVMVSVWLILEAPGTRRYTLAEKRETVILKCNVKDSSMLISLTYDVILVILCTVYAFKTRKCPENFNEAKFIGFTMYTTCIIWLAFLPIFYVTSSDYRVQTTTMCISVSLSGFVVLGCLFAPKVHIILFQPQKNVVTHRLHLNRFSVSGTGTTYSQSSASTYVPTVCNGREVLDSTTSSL

In general, pIC50 refers to the IC50 on a negative log10 scale, so that one unit is a factor of ten. Take `NC1(C(=O)O)CCc2cc(P(=O)(O)O)ccc21` (racemic) [APICA, (RS)-1-amino-5-phosphonoindan-1-carboxylic acid]: the “activity against Group I or Group III receptors” value in series [1] was “no appreciable activity”. In addition, the negative-log IC50 (pIC50) on mGluR3 and on mGluR2 was about 4.52 each time.
